Measured values from PubChem BioAssay AID1963837 (Molecular Pharmacology Branch, DTP, NCI, 2024).

System: 843126-344-R-J1-PDC complex spheroid viability
Experiment: Anticancer human tumor 843126-344-R-J1-PDC patient-derived melanoma cell line growth inhibition [POLQ]
Details: for IC50: curve of first compound; for viability, T/C: stronger effect = lower value
Description: Multicellular complex tumor spheroid response to Polymerase (POL) inhibitors (novobiocin, ART-558, RP6685) in combination with a variety of drugs and investigational agents in selected tumor cell lines
The POL inhibitors (novobiocin, ART-558, and RP6685) were evaluated both individually and in combination with standard of care and investigational anticancer small molecules within a complex spheroid model of solid tumors. . Complex spheroids include a stromal component modeled by human endothelial cells (HUVEC) and fibroblasts modeled by human mesenchymal stem cells (MSCs). The concentration ranges selected for each drug and investigational agent were based upon clinically achievable concentrations if the clinical Cmax of the agent was known.
Compounds. The drugs and investigational agents: novobiocin (NSC847541), ART-558 (NSC835418), RP-6685 (NSC848927), peposertib (NSC802822), ceralasertib (NSC780249), elimusertib (NSC800525), camonsertib (NSC841442), AZD-1390 (NSC803789), olaparib (NSC753686), talazoparib (NSC767125), rucaparib (NSC756644), sotorasib (NSC818433), MRTX-1133 (NSC836407), SN-38 (NSC673596), topotecan (NSC609699), epotoside (NSC141540), doxorubicin (NSC123127), gemcitabine (NSC613327), 5-fluorouracil (NSC19893), paclitaxel (NSC125973), vemurafenib (NSC761431), MSA-2 (NSC828583), SN-011 (NSC837082), adavosertib (NSC754352), prexasertib (NSC758257), carboplatin (NSC241240) and oxaliplatin (NSC266046), were obtained from the National Cancer Institute (NCI) Developmental Therapeutics Program Chemical Repository (21). The FDA-approved anticancer drug set is available from the Developmental Therapeutics Program at https://dtp.cancer.gov/organization/dscb/obtaining/. […] The stock solutions were prepared in dimethyl sulfoxide (DMSO, Sigma-Aldrich, St. Louis, MO, cat. D2650), except for the platinum compounds which were prepared in saline (Quality Biological, Gaithersburg, MD, cat. 114-055-101), at 800-fold the tested concentration and stored at -70 degrees C prior to their use. All drugs and investigational agents were tested over a range starting from a high concentration at or near the clinical Cmax and decreasing in half-log increments. If the clinical Cmax for an agent had not been determined, the highest concentration tested was 10 microM, except for SN-38, which was tested at a high concentration of 1 microM.
Cell Culture. All cells were maintained in an incubator at 37 degrees C and 5% CO2 with 95% humidity. The PDC lines were cultured according to standard operating procedures established by the NCI PDMR (https://pdmr.cancer.gov). Table 3 of the manuscript, lists the cell lines along with the number of the three cell types plated to form the mct-spheroids and media for tumor cell growth. After thawing, all PDC lines, except 997537-175-T-J1-PDC and 415267-285-R-J2-PDC, were cultured in Matrigel-coated flasks prepared with a working solution of 1X Ham's F-12 nutrient mix, without supplementation (Thermo Fisher Scientific, cat. 11765054), 100 U/mL penicillin-streptomycin (Thermo Fisher Scientific, cat. 15140122), and 2.5% Matrigel (Corning Inc., Corning, NY, cat. 354248) for the first three passages. The two PDC lines 997537-175-T-J1-PDC and 415267-285-R-J2-PDC were cultured on uncoated flasks. The 857933-349-R-J2-PDC line was cultured in 6C/Colon 1B media containing advanced DMEM/F-12 (Thermo Fisher Scientific, cat. 12634028), 10 mM HEPES (Thermo Fisher Scientific, cat. 15630080), 1X GlutaMAX supplement (Thermo Fisher Scientific, cat. 35050061), 0.1 mg/mL primocin (InvivoGen, San Diego, CA, cat. ant-pm-2), 10% defined fetal bovine serum, heat inactivated (HyClone Laboratories Inc., Logan, UT, cat. SH30070.03HI), 50% L-WRN conditioned media (ATCC, cat. CRL-3276), 1.25 mM N-Acetyl-L-cysteine (Sigma-Aldrich, cat. A9165), 10 mM nicotinamide (Sigma-Aldrich, cat. N0636), 1X B-27 supplement (Thermo Fisher Scientific, cat. 17504044), 1X N-2 supplement (Thermo Fisher Scientific, cat. […]
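For viability, T/C in this document: spheroids exposed to drugs for seven days before readout.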

SMILES: Nc1ccn(C2OC(CO)C(O)C2(F)F)c(=O)n1 (configuration not stated) + Nc1ccc(C#CCN(C(=O)Cc2ncc(C(F)(F)F)cc2C(F)(F)F)c2ccc(F)cc2)nn1
- IC50 (second compound 0.0316 µM): < 31.6 nM
- IC50 (second compound 0.1 µM): < 31.6 nM
- IC50 (second compound 0.316 µM): < 31.6 nM
- IC50 (second compound 1 µM): < 31.6 nM
- IC50 (second compound 3.16 µM): < 31.6 nM
- IC50 (second compound 10 µM): < 31.6 nM
- viability, T/C (second compound 0.0316 µM, first compound 0.0316 µM): 36.5%
- viability, T/C (second compound 0.0316 µM, first compound 0.1 µM): 35.5%
- viability, T/C (second compound 0.0316 µM, first compound 0.316 µM): 38.9%
- viability, T/C (second compound 0.0316 µM, first compound 1 µM): 38%
- viability, T/C (second compound 0.0316 µM, first compound 3.16 µM): 37.6%
- viability, T/C (second compound 0.0316 µM, first compound 10 µM): 35%
- viability, T/C (second compound 0.1 µM, first compound 0.0316 µM): 43%
- viability, T/C (second compound 0.1 µM, first compound 0.1 µM): 41.8%
- viability, T/C (second compound 0.1 µM, first compound 0.316 µM): 38.7%
- viability, T/C (second compound 0.1 µM, first compound 1 µM): 39.8%
- viability, T/C (second compound 0.1 µM, first compound 3.16 µM): 38.5%
- viability, T/C (second compound 0.1 µM, first compound 10 µM): 41.8%
- viability, T/C (second compound 0.316 µM, first compound 0.0316 µM): 48.2%
- viability, T/C (second compound 0.316 µM, first compound 0.1 µM): 38.5%
- viability, T/C (second compound 0.316 µM, first compound 0.316 µM): 36%
- viability, T/C (second compound 0.316 µM, first compound 1 µM): 38%
- viability, T/C (second compound 0.316 µM, first compound 3.16 µM): 38.9%
- viability, T/C (second compound 0.316 µM, first compound 10 µM): 37.3%
- viability, T/C (second compound 1 µM, first compound 0.0316 µM): 36.3%
- viability, T/C (second compound 1 µM, first compound 0.1 µM): 35.3%
- viability, T/C (second compound 1 µM, first compound 0.316 µM): 46.5%
- viability, T/C (second compound 1 µM, first compound 1 µM): 35%
- viability, T/C (second compound 1 µM, first compound 3.16 µM): 38.2%
- viability, T/C (second compound 1 µM, first compound 10 µM): 29.6%
- viability, T/C (second compound 3.16 µM, first compound 0.0316 µM): 36.4%
- viability, T/C (second compound 3.16 µM, first compound 0.1 µM): 35.2%
- viability, T/C (second compound 3.16 µM, first compound 0.316 µM): 39.9%
- viability, T/C (second compound 3.16 µM, first compound 1 µM): 36.2%
- viability, T/C (second compound 3.16 µM, first compound 3.16 µM): 37.5%
- viability, T/C (second compound 3.16 µM, first compound 10 µM): 36.5%
- viability, T/C (second compound 10 µM, first compound 0.0316 µM): 39.5%
- viability, T/C (second compound 10 µM, first compound 0.1 µM): 38.1%
- viability, T/C (second compound 10 µM, first compound 0.316 µM): 32.8%
- viability, T/C (second compound 10 µM, first compound 1 µM): 39.9%
- viability, T/C (second compound 10 µM, first compound 3.16 µM): 31.2%
- viability, T/C (second compound 10 µM, first compound 10 µM): 42.6%
